The results in this text go back to patent US20140323519A1, “HETEROCYCLIC COMPOUNDS AS B-RAF INHIBITORS FOR TREATMENT OF CANCER” (MERCK SHARP & DOHME CORP., priority 2011, published 2014).

Broadly, the pIC50 is the negative decadic logarithm of the IC50, by convention in mol/L.

Each structure is given as a SMILES string. pIC50: −log10 of the molar value. Bounds are passed on as bounds.

This experiment addresses T1, B-Raf kinase (Homo sapiens, UniProt P15056).
T1 construct: purchased Upstate 14-530
The experiment in a line: B-Raf kinase assay (IMAP fluorescence polarisation, B-raf/MEK1/ERK2 cascade). Conditions: B-raf 0.2 U/mL, 50 μM ATP, 60 min pre-incubation, FP readout. The experiment is classed as biochemical. On the procedure: Other assays are known in the literature and could be readily performed by those of skill in the art.
9) B-raf, active enzyme (for example #14-530, Upstate)
13) Fluorescein labeled substrate peptide (“ERK-tide”; IPTTPITTTYFFFK-5FAM-COOH), (for example #R7292/#R7293, Molecular Devices)
Prepare fresh Kinase Reaction buffer (KR-buffer) just before use: 50 mL Reaction buffer+50 μl 1 M DTT (1 mM final concentration). Serial dilutions of test compounds are made in 100% DMSO. For example a 10 points half log serial dilution from 1 mM to 31.6 nM leading to a final compound concentration range in the assay from 10 μM to 0.316 nM can be used.
1) Add 2.5 μL/well test compound in KR-buffer (this solution contains 8% DMSO) or (in minimum, maximum and background wells) 2.5 μL/well KR-buffer containing 8% DMSO. (Final DMSO concentration in the assay is 1%).
2) Add 5 μL/well 0.8 U/mL B-raf enzyme diluted in KR-buffer (final B-raf enzyme concentration in the assay is 0.2 U/mL) to all wells.
3) Pre-incubate 60 minutes at room temperature in the dark.
4) Add 5 μL/well 256 ng/mL MEK1 enzyme diluted in KR-buffer (final MEK1 enzyme concentration in the assay is 64 ng/mL) to all wells.
5) Add 5 μL/well 2.4 μg/mL Erk2 enzyme with 200 nM Fl-peptide substrate diluted in KR-buffer (final concentration in the assay of Erk2 enzyme is 600 ng/mL and of Fl-peptide substrate is 50 nM) to all wells except the background wells. Add here 5 μL/well 2.4 μg/mL Erk2 enzyme without 200 nM Fl-peptide substrate.
6) Add 2.5 μL/well 400 μM ATP to minimum and compound wells (50× dilution of the mM stock in KR-buffer, final ATP concentration in the assay is 50 μM) or (in maximum wells) 2.5 μl/well KR-buffer.
7) Incubate 60 minutes at 30° C. in the dark.
8) Add 20 μL/well IMAP Progressive Binding Solution (IMAP Progressive Binding Solution: 75% 1× buffer A and 25% 1× buffer B with 1:900 dilution of Progressive Binding Reagent, all kit contents) to all wells.
9) Incubate 60 minutes at room temperature in the dark.
10) Read the FP signal on Envision multi-label reader.
On every 384-well assay plate, 16-18 wells are used as minimum wells (wells without inhibitor, 0% effect), 16-18 wells are used as maximum wells (wells without ATP, 100% effect). 16 wells are used for measuring the background signal (everything but not substrate). For all assay plates duplicates are prepared.
Run as two independent experiments (N=2) on duplicate plates (n=2).
IC50 Determinations: mP values of compound test wells are converted to percent effect based on 0% effect and 100% effect controls. Dose-response curves were generated from percent effect data plotted against test compound concentration, each in duplicate, from 10 point serial dilutions of inhibitory compounds. To generate IC50 values, the dose-response curves were fitted to a standard sigmoidal curve and IC50 values were derived by nonlinear regression analysis.
A general note: Fluorescence polarisation rises when a labelled molecule tumbles more slowly, as on binding a larger partner.

T1 sequence (P15056 416-766 limits assumed): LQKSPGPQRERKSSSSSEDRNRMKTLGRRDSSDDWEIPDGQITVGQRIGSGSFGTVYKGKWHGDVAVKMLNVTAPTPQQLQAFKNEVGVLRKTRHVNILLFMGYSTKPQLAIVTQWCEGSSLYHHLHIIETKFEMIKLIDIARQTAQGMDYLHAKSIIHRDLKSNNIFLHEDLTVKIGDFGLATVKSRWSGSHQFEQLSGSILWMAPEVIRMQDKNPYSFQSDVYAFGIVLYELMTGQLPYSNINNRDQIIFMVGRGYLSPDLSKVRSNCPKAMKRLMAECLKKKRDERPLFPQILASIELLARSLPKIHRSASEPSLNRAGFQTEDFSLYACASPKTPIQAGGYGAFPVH

The compound `Cc1ccc(NC(=O)c2cccc(C(C)(C)C#N)c2)cc1-n1c(=O)n(C)c2ccccc21` [Compound 1-6, 3-(2-cyanopropan-2-yl)-N-(4-methyl-3-(3-methyl-2-oxo-2,3-dihydro-1H-benzo[d]imidazol-1-yl)phenyl)benzamide] gave a pIC50 of 7.00 to 7.30. `Cc1ccc(NC(=O)c2cccc(C(C)(C)C#N)c2)cc1N1CC(c2ccccc2)CC1=O` (stereo not drawn) [Compound 1-5, 3-(Cyano-dimethyl-methyl)-N-[4-methyl-3-(2-oxo-4-phenyl-pyrrolidin-1-yl)-phenyl]-benzamide] had a pIC50 of 7.00 to 7.30. Regarding `Cc1ccc(NC(=O)c2cccc(C(C)(C)C#N)c2)cc1N1CC(c2ccccc2)OC1=O` (stereo not drawn) [Compound 1-7, 3-(Cyano-dimethyl-methyl)-N-[4-methyl-3-(2-oxo-5-phenyl-oxazolidin-3-yl)-phenyl]-benzamide], the pIC50 is 7.00 to 7.30. With `COc1ccc2c(c1)C(=O)N(c1cc(NC(=O)c3cccc(C(C)(C)C#N)c3)ccc1C)C2` [Compound 1-1, 3-(2-cyanopropan-2-yl)-N-(3-(6-methoxy-1-oxoisoindolin-2-yl)-4-methylphenyl)benzamide], the negative logarithm of the IC50 (pIC50) was 7.00 to 7.30.

With `Cc1ccc(NC(=O)c2cccc(C(C)(C)C#N)c2)cc1N1CCN(c2ccccc2)C1=O` [Compound 1-8, 3-(Cyano-dimethyl-methyl)-N-[4-methyl-3-(2-oxo-3-phenyl-imidazolidin-1-yl)-phenyl]-benzamide], the pIC50 was less than 7.00. In the case of `COc1ccc2c(c1)n(-c1cc(NC(=O)c3cccc(C(C)(C)C#N)c3)ccc1C)c(=O)n2C` [Compound 1-9, 3-(Cyano-dimethyl-methyl)-N-[3-(6-methoxy-3-methyl-2-oxo-2,3-dihydro-benzoimidazol-1-yl)-4-methyl-phenyl]-benzamide], the pIC50 was less than 7.00.
